Measurements reported in patent USRE35801E, “Prophylactic and therapeutic composition for circulatory disorders and method of treatment” (priority 1985, dated 1998).
Entries after “also recorded” stand apart in the source; their conditions may differ. Counter-ions that a name gives are not always drawn.

How the values were obtained:
[1] = system: lipid peroxidation (brain homogenate); assay: Inhibitory action of lipid peroxidation in brain homogenate (TBA value); type: biochemical; conditions: rat brain homogenate, 37° C., 30 minutes; for IC50: inhibition of lipid peroxidation
Protocol: (1) Inhibitory action of lipid peroxidation (a) Preparation of brain homogenate By use of Wister-strain male rat, brain homogenate was prepared following the procedure as described below. […] Next, a brain perfusion was conducted through the tube with ice-cooled 50 mM phosphate-buffered physiological saline (pH 7.4) hereinafter referred to as "PBS"), and the whole brain was extirpated. After removal of cerebellum, the wet weight of cerebrum was measured and, with addition of 9-fold amount of PBS, it was broken by a Teflon homogenizer in ice-water to be homogenized. After the brain homogenate was subjected to centrifugation at 4° C. at 2200 rpm for 10 minutes, 0.3 ml of the supernatant was apportioned into a light-shielding test tube equipped with a ground stopper, to provide a brain homogenate for evaluation of medicine. (b) Evaluation of test medicine To the brain homogenate produced in (a), 0.6 ml of PBS and 10 μl of ethanolic solution of a test medicine were added (to a final concentration of 500 μM or a concentration at a common ratio of 3 between 0.3 and 100 μm), and the mixture was heated in a warm bath at 37° C. for 30 minutes. […] Also, the same operation was performed by addition of 10 μl of ethanol (blank) in place of 10 μl ethanolic solution of the test medicine for measurement of blank. […] After shaking for about 30 seconds, the mixture was subjected to centrifugation at 3000 rpm for 10 minutes, and the supernatant was provided as a sample for measurement of peroxidized lipid.

[2] = system: lipid peroxidation by active oxygen; conditions: cited from earlier work
[3] = system: drowsy pattern of electroencephalogram induced by phenobarbital or pentobarbital sodium salt; assay: Antagonistic action against drowsy pattern of electroencephalogram induced by phenobarbital or pentobarbital sodium salt; type: in vivo, Wistar-strain male rat; conditions: for minimal effective dose: Rattus norvegicus, intravenous, sodium salt, drowsy EEG after PHB 30 mg/kg or PBT 5 mg/kg, read-out: Antagonistic action at dose or higher
Protocol: (2) Antagonistic action against drowsy pattern of so electroencephalogram induced by phenobarbital or pentobarbital sodium salt
A Wistar-strain male rat weighing about 400 g was intramasculary administered with 0.6 mg of d-tubocurarine to be immobilized and, while maintaining the rectal temperature at 37° to 38° C. under artificial respiration, the electroencephalogram of the left cerebral frontal cortex was measured and recorded. Also, within the left femoral artery and vein, cannulas for measurement of artery pressure and for administration of medicine were placed, respectively.
As the active ingredient of the present invention, sodium salt of the compound represented by Formula (I) was used and the respective doses of said active ingredient and 30 mg/kg of phenobarbital sodium salt (produced by Iwaki Seiyaku K.K.) (hereinafter called "PHB") or 5 mg/kg of pentobarbital sodium salt (hereinafter called PBT) were each dissolved in physiological saline and administered intravenously in a liquid amount of 1 ml/kg.
The action of the active ingredient of the present invention affecting the cortex electroencephalogram after PHB or PBT administration was investigated as follows; Namely, at the time of 5 minutes or later after PHB or PBT administration when increase of the slow-wave component can be clearly recognized on electroencephalogram, 1, 3, 10, 30 and 100 mg/kg of the active ingredient were administered. To the control group 1 ml/kg of physiological saline was intravenously administered.
Recording and analysis of electroencephalogram were continuously drawn together with artery pressure, heart rate and rectal temperature on the recorder through a multi-purpose monitoring recording device (model RM-85, produced by Nippon Koden K.K.). At the same time, electroencephalogram was recorded in data recorder (model A-65, produced by Sony K.K.), and compressed spectral array analysis was conducted by means of a computer for medical data processing (ATAC-450, produced by Nippon Koden K.K.).

[4] = system: cerebral ischemia recirculation model; assay: Protective action in cerebral ischemia recirculation model; type: in vivo, Wistar-strain male rat; set-up: key to Presence of electroencephalogram restoration / Judgement of action: The case when restoration of electroencephalogram is judged as +; case when not recognized as -; conditions: 10 mg/kg into duodenum; 10 min cerebral ischemia (Table 3)
Protocol: (3) Protective action in cerebral ischemia recirculation model
A Wistar-strain male rat weighing about 400 g was administered intramascularly with 0.6 mg of di-tubocurarine to be immobilized and, after a trachea cannulation, the head portion was fixed under artificial respiration on a stereotaxic device. The head skin was cut open, cranial bone was bored, and then bipolar electrode for lead-out of electroencephalogram were placed on the surface of the subdural left frontal cerebral cortex. After the electrode was fixed with the cranial bone by use of dental cement, the animal was held on its back. Next, a cannula for measurement of systemic pressure was placed within the left femoral artery, and a cannula for additional administration of d-tubocurarine within the left femoral vein, respectively. The heart rate was measured and recorded by driving a heart rate meter with the artery wave.
After blood pressure, heart rate and various parameters of electroencephalogram were stabilized, 10 mg/kg of the active ingredient of the present invention prepared in a suspension so as to give 1 ml/kg in 1% tragacanth gum solution was administered directly into duodenum […]. To the control group, only the 1% tragacanth gum solution of the same volume was administered similarly.
Ten to twenty minutes after administration of the medicine, while monitoring the electroencephalogram, blood pressure and heart rate on a multi-purpose monitoring recording device (RM-85 model, produced by Nippon Koden K.K.), the following operations were performed according to the methods shown below for cerebral ischemia loading.
First, ribs were set free at the left costicartilage end to open the chest. Next, cerebral blood flow was blocked for ten minutes by obstructing the left common carotid artery and the left subclavian artery exposed at the aorta originating portion at the same time, and then the brachiocephalic trunk by use of artery clips 30 minutes after administration of the medicine.
Recirculation of cerebral blood flow was effected by releasing at the same time the two artery clips mounted on the respective sites as mentioned above.
The protective action of the medicine for the disorder after recirculation of cerebral ischemia was examined by the presence of restoration of electroencephalogram, and survival time of animal after the recirculation.
During the experiment, the rectal temperature of the animal was maintained at 37° to 38° C. by use of a warming mat. Also, the rectal temperature was continuously drawn on the recorder together with electroencephalogram, femoral artery pressure and heart rate.

Row | Molecule | IC50 [1] [µM] | other results
1 | COc1ccccc1N1N=C(C)CC1=O [Compound 9] | 2130 | 
2 | vitamin E |  | inhibition of lipid peroxidation by active oxygen [2]: can inhibit lipid peroxidation by active oxygen; also recorded: only unsatisfactory action
3 | CCCC1=NN(c2ccccc2)C(=O)C1 [Compound 25, 1-Phenyl-3-propyl-2-pyrazolin-5-one] | 5.9 | minimal effective dose [3]: ≥ 10 mg/kg; Presence of electroencephalogram restoration [4]: +
4 | CC1=NN(c2cccc(Cl)c2)C(=O)C1 [Compound 15] | 3.4 | 
5 | CCOc1ccc(N2N=C(C)CC2=O)cc1 [Compound 13] | 10.3 | Presence of electroencephalogram restoration [4]: +
6 | CC1=NN(c2ccccc2)C(=O)C1CCO (stereo not shown) [Compound 32, 4-(2-Hydroxyethyl)-3-methyl-1-phenyl-2-pyrazolin-5-one] |  | Inhibitory percentage at 500 μM [1]: 62.7%
7 | CCOC(=O)CC1=NN(c2ccccc2)C(=O)C1 [Compound 36, 3-(Ethoxycarbonylmethyl)-1-phenyl-2-pyrazolin-5-one] | 32.2 | 
8 | CC1=NN(c2ccc(C)c(Cl)c2)C(=O)C1 [Compound 19] | 4.1 | 
9 | CC1=NN(c2ccccc2Cl)C(=O)C1 [Compound 14] | 97.8 | 
10 | COc1ccc(N2N=C(C)CC2=O)cc1OC [Compound 12] | 23 | 
11 | CCOC(=O)c1ccc(N2N=C(C)CC2=O)cc1 [Compound 22] | 5.2 | 
12 | CC1=NN(c2ccccc2O)C(=O)C1 [Compound 44, 1-(2-hydroxyphenyl)-3-methyl-2-pyrazolin-5-one] | 35.5 | 
13 | CC1=NN(c2ccc(C)cc2)C(=O)C1 [Compound 4] | 6.3 | minimal effective dose [3]: ≥ 10 mg/kg; Presence of electroencephalogram restoration [4]: +
14 | CC1=NN(c2ccc(F)cc2)C(=O)C1 [Compound 18] | 12.1 | 
15 | CC1=NN(c2ccccc2)C(=O)C1C (stereo not shown) [Compound 30, 3,4-Dimethyl-1-phenyl-2-pyrazolin-5-one] | 20.6 | Presence of electroencephalogram restoration [4]: +
16 | O=C1C2CCCCC2=NN1c1ccccc1 (stereo not shown) [Compound 35, 3,3a,4,5,6,7-Hexahydro-2-phenyl-2H-indazol-3-one] | 16.4 | Presence of electroencephalogram restoration [4]: +
17 | CC1=NN(Cc2ccccc2)C(=O)C1 [Compound 41] | 32.9 | 
18 | CC1=NN(c2cccc(O)c2)C(=O)C1 [Compound 45] | 21.2 | 
19 | CC1=NN(C2CCCCC2)C(=O)C1 [Compound 40] | 24.8 | Presence of electroencephalogram restoration [4]: +
20 | Cc1ccc(N2N=C(c3ccccc3)CC2=O)cc1 [Compound 27] | 1.2 | 
21 | COc1ccc(N2N=C(C)CC2=O)cc1 [Compound 11] | 20.7 | minimal effective dose [3]: ≥ 10 mg/kg; Presence of electroencephalogram restoration [4]: +
22 | CC1=NN(c2ccc(CO)cc2)C(=O)C1 [Compound 49, 1-(4-hydroxymethylphenyl)-3-methyl-2-pyrazolin-5-one] | 51.8 | 
23 | COc1cccc(N2N=C(C)CC2=O)c1 [Compound 10] | 7.1 | 
24 | CC1=NN(c2cccc(C)c2)C(=O)C1 [Compound 3] | 8 | 
25 | CC1=NN(c2ccc(O)c(O)c2)C(=O)C1 [Compound 47] | 1.3 | 
26 | CCC1=NN(c2ccccc2)C(=O)C1 [Compound 24, 3-Ethyl-1-phenyl-2-pyrazolin-5-one] | 15.1 | 

Row | Molecule | IC50 [1] [µM] | other results
27 | CC1=NNC(=O)C1 [Compound 37, 3-Methyl-2-pyrazolin-5-one] |  | Inhibitory percentage at 500 μM [1]: 34.3%
28 | COc1ccc(N2N=C(c3ccccc3)CC2=O)cc1 [Compound 28] | 3 | 
29 | CC1=NN(C)C(=O)C1 [Compound 38, 1,3-Dimethyl-2-pyrazolin-5-one] |  | Inhibitory percentage at 500 μM [1]: 45.5%
30 | CC1=NN(c2ccccc2)C(=O)C1CC(C)C (stereo not shown) [Compound 31, 4-Isobutyl-3-methyl-1-phenyl-2-pyrazolin-5-one] | 5.7 | minimal effective dose [3]: ≥ 10 mg/kg; Presence of electroencephalogram restoration [4]: +
31 | CC1=NN(c2ccc([N+](=O)[O-])cc2)C(=O)C1 [Compound 23] | 5.1 | 
32 | O=C1CC=NN1c1ccccc1 [Compound 51, 1-Phenyl-2-pyrazolin-5-one] | 20.1 | 
33 | O=C1CC(c2ccccc2)=NN1c1ccc(Cl)cc1 [Compound 29] | 1.2 | 
34 | CC1=NN(c2ccccc2)C(=O)C1Oc1ccccc1 (stereo not shown) [Compound 33] | 16.2 | 
35 | CN1N=C(c2ccccc2)CC1=O [Compound 43] | 27.2 | 
36 | CC1=NN(c2ccc(Cl)c(Cl)c2)C(=O)C1 [Compound 17] | 1.6 | 
37 | CC1=NN(c2ccc(N)cc2)C(=O)C1 [Compound 50, 1-(4-aminophenyl)-3-methyl-2-pyrazolin-5-one dihydrochloride] | 32.1 | 
38 | CC1=NN(c2ccccc2C)C(=O)C1 [Compound 2] | 392 | 
39 | CC1=NN(c2ccc(C)c(C)c2)C(=O)C1 [Compound 5] | 6 | 
40 | CC1=NN(c2ccc(Cl)cc2)C(=O)C1 [Compound 16] | 4 | Presence of electroencephalogram restoration [4]: +
41 | CC1=NN(c2ccc(O)cc2)C(=O)C1 [Compound 46] | 23.9 | 
42 | CC1=NN(c2ccccc2)C(=O)C1Sc1ccccc1 (stereo not shown) [Compound 34] | 146 | 
43 | CC1=NN(c2cccc(C(F)(F)F)c2)C(=O)C1 [Compound 8] | 3.9 | 
44 | CC1=NN(c2ccc(C(=O)O)cc2)C(=O)C1 [Compound 21] |  | Inhibitory percentage at 500 μM [1]: 34.0%
45 | CC1=NN(CCO)C(=O)C1 [Compound 39, 1-(2-Hydroxyethyl)-3-methyl-2-pyrazolin-5-one] |  | Inhibitory percentage at 500 μM [1]: 39.2%
46 | CCCCc1ccc(N2N=C(C)CC2=O)cc1 [Compound 7] | 2.2 | 
47 | O=C1CC(c2ccccc2)=NN1c1ccccc1 [Compound 26, 1,3-Diphenyl-2-pyrazolin-5-one] | 0.08 | 
48 | CSc1cccc(N2N=C(C)CC2=O)c1 [Compound 20] | 5.1 | 
49 | O=C1CC(c2ccccc2)=NN1c1ccc(O)cc1 [Compound 48] | 2.7 | 
50 | CC1=NN(c2cccc3ccccc23)C(=O)C1 [Compound 42] | 4.9 | 
51 | CCC1(c2ccccc2)C(=O)NC(=O)NC1=O [PHB, phenobarbital sodium salt, reference compound] |  | persistence of sleep-like electroencephalogram after PHB ([3]; PHB 30 mg/kg intravenous): at least 3 hours
